The source of these data is PMC4909201 (PLoS ONE, 2016).

Experiment [1] addresses thrombin binding to immobilized factor Va (Homo sapiens, UniProt P00734). Briefly: SPR: effect of active site inhibitors on thrombin binding to immobilized factor Va. On the technique in general: Surface plasmon resonance follows binding to a sensor surface in real time, without labels.
Procedure: (§1) Flows cells were then washed with 1 M ethanolamine for 420 s, followed by the running buffer composed of 20 mM HEPES, 150 mM NaCl, pH 7.4 (HBS) containing 0.01% Tween-80 (HBS-Tw) and 5 mM CaCl2.
(§2) Because of the fast on- and off-rates, all SPR experiments were performed at a flow rate of 25 μl/min [28]. Association times were 120 s and dissociation was monitored by washing the flow cells with HBS-Tw for 600 s. Between runs, flow cells were regenerated with a 45 s wash with HBS-Tw containing 0.5 M CaCl2.
(§3) The rapid approach to equilibrium at the low flow rate nullified any potential mass transport concerns. Nonspecific binding was accounted for by subtracting the control RU values obtained from the unmodified flow cell.
Experiment [2] concerns the target thrombin binding to immobilized γA/γA-fibrin (Homo sapiens, UniProt P00734). Briefly: SPR: effect of active site inhibitors on thrombin binding to immobilized γA/γA-fibrin.
Experiment [3] concerns the target T1, thrombin binding to GpIbα269-286ppp (Homo sapiens, UniProt P00734).
T1 construct: purchased Enzyme Research Laboratories (South Bend, IN)
The experiment can be described thus: SPR: effect of active site inhibitors on thrombin binding to immobilized GpIbα269-286ppp. As to conditions: for Change: difference between thrombin binding without inhibitor and at saturating inhibitor; for increase in affinity of thrombin for GpIbα269-286ppp: 2.5 μM inhibitor vs no inhibitor, p < 0.001. The protocol: Between runs, flow cells were regenerated with 1 M NaCl for 30 s. […] EC50 values were determined as above. […] Binding affinities were calculated as described above.

Experiment [4] deals with T2, 125I-thrombin binding to γA/γ′-fibrin clots (Homo sapiens, UniProt P00734).
T2 construct: purchased Enzyme Research Laboratories (South Bend, IN)
Briefly: 125I-thrombin binding to γA/γ′-fibrin clots. The note with it: for Ki: EC50 converted by Cheng-Prusoff with Kd of 125I-thrombin for fibrin, 10 nM 125I-thrombin, 1 μM γA/γ′-fibrinogen.

The target of experiment [5] is T3, 125I-thrombin binding to γA/γA-fibrin clots (Homo sapiens, UniProt P00734).
T3 construct: purchased Enzyme Research Laboratories (South Bend, IN)
Briefly: 125I-thrombin binding to γA/γA-fibrin clots. As to conditions: for Ki: EC50 converted by Cheng-Prusoff with Kd of 125I-thrombin for fibrin, 10 nM 125I-thrombin, 3 μM γA/γA-fibrinogen.

The target of experiment [6] is thrombin binding to immobilized γA/γ′-fibrin (Homo sapiens, UniProt P00734). Briefly: SPR: effect of active site inhibitors on thrombin binding to immobilized γA/γ′-fibrin.
Procedure: as §1, §2, §3
Experiment [7] deals with thrombin. The note with it: thrombin inhibition; cited from earlier work.
Where [8] appears, read: given as reduction (positive number).
[9] abbreviates: maximal change in percentage of bound 125I-thrombin vs no inhibitor.
[10] abbreviates: maximal change in percentage of bound 125I-thrombin vs no inhibitor, listed as hirudin.
[11] abbreviates: maximal change in percentage of bound 125I-thrombin vs no inhibitor, listed as argatroban.
Where [12] appears, read: 0–5000 nM inhibitor, 250–500 nM thrombin.

Where two headings read alike, the source gives them in different places.

With `[H]/N=C(/N)c1ccc(NCc2nc3cc(C(=O)N(CCC(=O)O)c4ccccn4)ccc3n2C)cc1` [Dabigatran, dabigatran], the results for the “reduction of thrombin binding at saturation” value in experiment [1] (setting [8]), in experiment [2] (setting [8]) and in experiment [6] (setting [8]) were 37.9 ± 3.2%, 47.6 ± 0.4% and 28.4 ± 1.6%, respectively. For the same molecule, the Change in experiment [3] was 0%; in experiment [3] (listed as dabigatran), “no effect”; in experiment [4], -9.4 ± 1.4%; in experiment [5] it was -21.4 ± 3.3%.
The term Ki denotes a dissociation constant, usually derived from enzyme kinetics or from competition with a known ligand. Regarding Hirudin, the Ki in experiment [4] was found to be 3.4 ± 0.1 nM; in experiment [5] it was 3.4 ± 0.3 nM. The Change in experiment [4] (setting [9]) is recorded as -100%; in experiment [4] (setting [10]), “fully inhibited”; in experiment [5] (setting [9]), -100%; in experiment [5] (setting [10]) it was “fully inhibited”.
With `CC1CNc2c(cccc2S(=O)(=O)N[C@@H](CCCNC(=N)N)C(=O)N2CC[C@@H](C)C[C@@H]2C(=O)O)C1` (stereo partly shown) [Argatroban, argatroban], the “increase in affinity of thrombin for GpIbα269-286ppp” value in experiment [3] is on record as 25–35%. The Change result in experiment [3] was “+17.3 ± 0.6%”; in experiment [3] (listed as argatroban) it was 17%; in experiment [4] (setting [9]), “+26.1 ± 0.4%”; in experiment [4] (setting [11]), 15–25%; in experiment [5] (setting [9]), “+18.3 ± 5.0%”; in experiment [5] (setting [11]), 15–25%.
A word on the EC50: it is the concentration giving half of the maximal effect. `CCC1CCN(C(=O)C(CCCN=C(N)N)NS(=O)(=O)c2cccc3c(N(C)C)cccc23)CC1` (stereo not shown) [DAPA, dansylarginine N-(3-ethyl-1,5-pentanediyl)amide]: the EC50 was found to be 565 ± 200 nM in experiment [1] (setting [12]); 514 ± 24 nM in experiment [2] (0–5000 nM inhibitor, 250–500 nM thrombin, Req vs inhibitor concentration); 1290 ± 32.3 nM in experiment [3] (0–5000 nM inhibitor, 250 nM thrombin); 516 ± 31 nM in experiment [6] (setting [12]). In addition, in experiment [3], the “increase in affinity of thrombin for GpIbα269-286ppp” value is 25–35%. The Ki was 19.6 ± 19.1 nM in experiment [4], 2.1 ± 0.9 nM in experiment [5] and 45 nM in experiment [7].
